{
  "source": "patent US20060205949A1",
  "about": "“Crystalline forms of a biphenyl compound” (THERAVANCE, INC., priority 2005, published 2006)",
  "key": {"[1]": {"target": "T1, hM2 receptor (CHO-K1 cells) (Homo sapiens, UniProt P08172)", "T1 construct": "expressed in transfected cells; host or cells: CHO-K1 cells", "T1 sequence (P08172 1-466)": "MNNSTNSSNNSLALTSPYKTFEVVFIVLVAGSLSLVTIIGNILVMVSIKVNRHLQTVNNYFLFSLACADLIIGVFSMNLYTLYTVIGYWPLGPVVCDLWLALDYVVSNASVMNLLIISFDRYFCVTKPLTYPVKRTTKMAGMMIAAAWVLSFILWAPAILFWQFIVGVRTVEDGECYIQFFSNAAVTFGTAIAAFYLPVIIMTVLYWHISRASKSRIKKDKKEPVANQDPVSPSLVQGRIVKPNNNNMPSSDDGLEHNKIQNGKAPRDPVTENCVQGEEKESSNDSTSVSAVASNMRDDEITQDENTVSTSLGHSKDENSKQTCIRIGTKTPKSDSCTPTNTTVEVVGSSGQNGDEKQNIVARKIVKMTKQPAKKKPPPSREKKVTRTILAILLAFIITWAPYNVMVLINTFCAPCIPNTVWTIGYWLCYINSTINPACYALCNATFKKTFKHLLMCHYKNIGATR", "assay": "Blockade of agonist-mediated [35S]GTPγS binding", "assay_type": "biochemical", "conditions": "CHO-K1 cells expressing the hM2 receptor; this or a similar assay; read-out: Ki value for blockade of oxotremorine-stimulated [35S]GTPγS binding", "method": "In a second functional assay, the functional potency of test compounds can be determined by measuring the ability of the compounds to block oxotremorine-stimulated [^35S]GTPγS binding in CHO-K1 cells expressing the hM2 receptor.\nAt the time of use, frozen membranes were thawed and then diluted in assay buffer with a final target tissue concentration of 5-10 μg protein per well. The membranes were briefly homogenized using a Polytron PT-2100 tissue disrupter and then added to the assay plates. The EC90 value (effective concentration for 90% maximal response) for stimulation of [^35S]GTPγS binding by the agonist oxotremorine was determined in each experiment.\nThe assay plates were then incubated at 37° C. for 60 minutes. The assay plates were filtered over 1% BSA-pretreated GF/B filters using a PerkinElmer 96-well harvester. The plates were rinsed with ice-cold wash buffer for 3×3 seconds and then air or vacuum dried. Microscint-20 scintillation liquid (50 μL) was added to each well, and each plate was sealed and radioactivity counted on a topcounter (PerkinElmer). Data were analyzed by nonlinear regression analysis with the GraphPad Prism Software package (GraphPad Software, Inc., San Diego, Calif.) using the non-linear regression, one-site competition equation. […]"}, "hM3 receptor (CHO cells)": {"target": "T2, hM3 receptor (CHO cells) (Homo sapiens, UniProt P20309)", "T2 construct": "expressed in transfected cells", "T2 sequence (P20309 whole entry)": "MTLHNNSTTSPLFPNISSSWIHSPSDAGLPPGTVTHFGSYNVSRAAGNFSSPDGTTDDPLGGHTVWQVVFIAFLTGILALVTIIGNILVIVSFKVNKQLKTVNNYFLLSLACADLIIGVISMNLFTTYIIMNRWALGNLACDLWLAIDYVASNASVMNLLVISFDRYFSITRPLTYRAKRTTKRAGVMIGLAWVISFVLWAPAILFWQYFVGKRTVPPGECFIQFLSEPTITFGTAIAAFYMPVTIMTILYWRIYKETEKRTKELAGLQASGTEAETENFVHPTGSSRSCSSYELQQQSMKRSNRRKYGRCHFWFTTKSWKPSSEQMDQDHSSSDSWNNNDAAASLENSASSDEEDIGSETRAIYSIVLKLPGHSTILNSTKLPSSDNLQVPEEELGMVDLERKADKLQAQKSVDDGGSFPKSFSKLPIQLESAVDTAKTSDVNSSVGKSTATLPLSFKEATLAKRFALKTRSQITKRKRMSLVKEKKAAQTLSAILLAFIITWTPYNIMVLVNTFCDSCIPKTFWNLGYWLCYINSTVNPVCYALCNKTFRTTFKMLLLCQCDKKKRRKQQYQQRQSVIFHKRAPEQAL", "assay": "Blockade of agonist-mediated calcium release via FLIPR", "assay_type": "cell-based", "conditions": "CHO cells stably expressing the hM3 receptor, this or a similar assay", "from_the_text": "Muscarinic receptor subtypes (M1, M3 and M5 receptors), which couple to Gq proteins, activate the phospholipase C (PLC) pathway upon agonist binding to the receptor. As a result, activated PLC hydrolyzes phosphatyl inositol diphosphate (PIP2) to diacylglycerol (DAG) and […] (IP3), which in turn generates calcium release from intracellular stores, i.e., endoplasmic and sarcoplasmic reticulum. The FLIPR (Molecular Devices, Sunnyvale, Calif.) assay capitalizes on this increase in intracellular calcium by using a calcium sensitive dye (Fluo-4AM, Molecular Probes, Eugene, Oreg.) that fluoresces when free calcium binds. This fluorescence event was measured in real time by the FLIPR, which detected the change in fluorescence from a monolayer of cells cloned with human M1 and M3, and chimpanzee M5 receptors. Antagonist potency was determined by the ability of antagonists to inhibit agonist-mediated increases in intracellular calcium.\nFor FLIPR calcium stimulation assays, CHO cells stably expressing the hM1, hM3 and cM5 receptors were seeded into 96-well FLIPR plates the night before the assay was done. […]\nTo determine antagonist potency, the dose-dependent stimulation of intracellular Ca^2+ release for oxotremorine was first determined so that antagonist potency can later be measured against oxotremorine stimulation at an EC90 concentration. […]"}},
  "data": [
    {"smiles": "O=C(CCN1CCC(OC(=O)Nc2ccccc2-c2ccccc2)CC1)NCCCCCNCc1ccc(O)cc1", "note": "[compound of formula I, biphenyl-2-ylcarbamic acid 1-{2-[5-(4-hydroxybenzylamino)pentylcarbamoyl]ethyl}piperidin-4-yl ester]", "values": [
      {"measurement": "Ki", "setting": "[1]", "value": "< 10", "unit": "nM"},
      {"measurement": "Ki", "setting": "hM3 receptor (CHO cells)", "value": "< 10", "unit": "nM"}
    ]}
  ]
}
